Assay results published in the NIST ThermoML archive (doi:10.1016/j.fluid.2007.10.004).
± gives the expanded uncertainty stated by the source.

Conditions: Capillary rise

SMILES | surface tension liquid-gas (298 K) [mN/m] | surface tension liquid-gas (303 K) [mN/m] | surface tension liquid-gas (308 K) [mN/m] | surface tension liquid-gas (313 K) [mN/m] | surface tension liquid-gas (318 K) [mN/m] | surface tension liquid-gas (323 K) [mN/m] | surface tension liquid-gas (328 K) [mN/m] | surface tension liquid-gas (333 K) [mN/m] | surface tension liquid-gas (338 K) [mN/m] | surface tension liquid-gas (343 K) [mN/m] | surface tension liquid-gas (348 K) [mN/m] | surface tension liquid-gas (353 K) [mN/m] | surface tension liquid-gas (358 K) [mN/m] | surface tension liquid-gas (363 K) [mN/m] | surface tension liquid-gas (368 K) [mN/m] | surface tension liquid-gas (373 K) [mN/m] | surface tension liquid-gas (378 K) [mN/m] | surface tension liquid-gas (383 K) [mN/m] | surface tension liquid-gas (388 K) [mN/m] | surface tension liquid-gas (393 K) [mN/m]
CCCCn1cc[n+](C)c1.F[P-](F)(F)(F)(F)F [1-butyl-3-methylimidazolium hexafluorophosphate] | 47.5 ± 1.3 | 47.2 ± 1.3 | 46.9 ± 1.3 | 46.5 ± 1.3 | 46 ± 1.3 | 45.6 ± 1.3 | 45.3 ± 1.3 | 44.9 ± 1.3 | 44.6 ± 1.3 | 44.3 ± 1.3 | 43.8 ± 1.3 | 43.5 ± 1.3 | 43.1 ± 1.2 | 42.8 ± 1.2 | 42.4 ± 1.2 | 42.1 ± 1.2 | 41.7 ± 1.2 | 41.3 ± 1.2 | 41.1 ± 1.2 | 40.8 ± 1.2
CCCCn1cc[n+](C)c1.[I-] [1-butyl-3-methylimidazolium iodide] | 53.3 ± 1.5 | 52.9 ± 1.5 | 52.5 ± 1.5 | 52.1 ± 1.5 | 51.5 ± 1.4 | 51.1 ± 1.4 | 50.7 ± 1.4 | 50.3 ± 1.4 | 49.9 ± 1.4 | 49.4 ± 1.4 | 49 ± 1.4 | 48.6 ± 1.4 | 48.2 ± 1.4 | 47.8 ± 1.4 | 47.4 ± 1.3 | 47.1 ± 1.3 | 46.7 ± 1.3 | 46.3 ± 1.3 | 46 ± 1.3 | 45.6 ± 1.3
CCCCn1cc[n+](C)c1.[Cl-] [1-butyl-3-methylimidazolium chloride] | 48.2 ± 1.4 | 47.8 ± 1.3 | 47.5 ± 1.3 | 47.2 ± 1.3 | 46.9 ± 1.3 | 46.6 ± 1.3 | 46.3 ± 1.3 | 46 ± 1.3 | 45.6 ± 1.3 | 45.3 ± 1.3 | 45 ± 1.3 | 44.7 ± 1.3 | 44.4 ± 1.3 | 43.9 ± 1.3 | 43.6 ± 1.3 | 43.2 ± 1.2 | 42.9 ± 1.2 | 42.5 ± 1.2 | 42.2 ± 1.2 | 41.8 ± 1.2
CCCCCCn1cc[n+](C)c1.F[B-](F)(F)F [1-hexyl-3-methylimidazolium tetrafluoroborate] | 39.2 ± 1.2 | 38.9 ± 1.2 | 38.7 ± 1.1 | 38.4 ± 1.1 | 38.1 ± 1.1 | 37.9 ± 1.1 | 37.7 ± 1.1 | 37.5 ± 1.1 | 37.2 ± 1.1 | 36.9 ± 1.1 | 36.6 ± 1.1 | 36.4 ± 1.1 | 36.2 ± 1.1 | 35.8 ± 1.1 | 35.6 ± 1.1 | 35.4 ± 1.1 | 35.1 ± 1.1 | 34.9 ± 1.1 | 34.6 ± 1.1 | 34.3 ± 1.1
CCCCCCn1cc[n+](C)c1.[Cl-] [1-hexyl-3-methylimidazolium chloride] | 41.8 ± 1.2 | 41.5 ± 1.2 | 41.2 ± 1.2 | 40.8 ± 1.2 | 40.5 ± 1.2 | 40.2 ± 1.2 | 40 ± 1.2 | 39.8 ± 1.2 | 39.4 ± 1.2 | 39.1 ± 1.2 | 38.8 ± 1.2 | 38.5 ± 1.1 | 38.3 ± 1.1 | 37.9 ± 1.1 | 37.7 ± 1.1 | 37.4 ± 1.1 | 37.1 ± 1.1 | 36.8 ± 1.1 | 36.5 ± 1.1 | 36.2 ± 1.1
CCCCCCCC[n+]1ccn(C)c1.[Cl-] [1-methyl-3-octylimidazolium chloride] | 31.9 ± 1 | 31.7 ± 1 | 31.5 ± 1 | 31.2 ± 1 | 30.9 ± 1 | 30.6 ± 1 | 30.3 ± 1 | 30 ± 1 | 29.7 ± 1 | 29.5 ± 1 | 29.2 ± 1 | 28.9 ± 0.9 | 28.7 ± 0.9 | 28.4 ± 0.9 | 28.2 ± 0.9 | 27.9 ± 0.9 | 27.6 ± 0.9 | 27.4 ± 0.9 | 27 ± 0.9 | 26.7 ± 0.9
CCCCCCn1cc[n+](C)c1.F[P-](F)(F)(F)(F)F [1-hexyl-3-methylimidazolium hexafluorophosphate] | 43.4 ± 1.3 | 43 ± 1.2 | 42.6 ± 1.2 | 42.3 ± 1.2 | 41.9 ± 1.2 | 41.5 ± 1.2 | 41.1 ± 1.2 | 40.8 ± 1.2 | 40.5 ± 1.2 | 40.2 ± 1.2 | 39.8 ± 1.2 | 39.5 ± 1.2 | 39.1 ± 1.2 | 38.8 ± 1.2 |  |  |  |  |  | 
CCCCn1cc[n+](C)c1.F[B-](F)(F)F [1-butyl-3-methylimidazolium tetrafluoroborate] | 43.6 ± 1.3 | 43.3 ± 1.2 | 43 ± 1.2 | 42.7 ± 1.2 | 42.3 ± 1.2 | 42 ± 1.2 | 41.8 ± 1.2 | 41.5 ± 1.2 | 41.2 ± 1.2 | 40.9 ± 1.2 | 40.7 ± 1.2 | 40.4 ± 1.2 | 40.2 ± 1.2 | 39.8 ± 1.2 | 39.5 ± 1.2 | 39.2 ± 1.2 | 39 ± 1.2 | 38.8 ± 1.1 | 38.5 ± 1.1 | 38.2 ± 1.1
CCCCCCCC[n+]1ccn(C)c1.F[B-](F)(F)F [1-methyl-3-octylimidazolium tetrafluoroborate] | 30.7 ± 1 | 30.4 ± 1 | 30.1 ± 1 | 29.9 ± 1 | 29.6 ± 1 | 29.4 ± 1 | 29.2 ± 1 | 28.9 ± 0.9 | 28.7 ± 0.9 | 28.4 ± 0.9 | 28.2 ± 0.9 | 27.9 ± 0.9 | 27.7 ± 0.9 | 27.4 ± 0.9 | 27.2 ± 0.9 | 27 ± 0.9 | 26.7 ± 0.9 | 26.5 ± 0.9 | 26.3 ± 0.9 | 26 ± 0.9
CCCCCCn1cc[n+](C)c1.[I-] [1-hexyl-3-methylimidazolium iodide] | 43.5 ± 1.3 | 43.1 ± 1.2 | 42.7 ± 1.2 | 42.3 ± 1.2 | 41.9 ± 1.2 | 41.5 ± 1.2 | 41.1 ± 1.2 | 40.8 ± 1.2 | 40.4 ± 1.2 | 40.1 ± 1.2 | 39.7 ± 1.2 | 39.4 ± 1.2 | 39 ± 1.2 | 38.6 ± 1.1 | 38.3 ± 1.1 | 37.9 ± 1.1 | 37.6 ± 1.1 | 37.2 ± 1.1 | 36.8 ± 1.1 | 36.5 ± 1.1
